Test results as given in patent US9656988B2 (Pharmacyclics LLC, priority 2013, dated 2017).
Where two headings read alike, the source gives them in different places.

Molecular target: BTK (Homo sapiens (Human), UniProt Q06187)
Experiment: Btk in vitro inhibitory activity (one of Method A TR-FRET, Method B electrophoretic mobility shift, Method C radiometric filter binding)
Assay type: biochemical
[1] = determined using one of the methods of Example 355a, 355b and 355c, read-out: BTK IC50

Sequence of BTK (Q06187 whole entry): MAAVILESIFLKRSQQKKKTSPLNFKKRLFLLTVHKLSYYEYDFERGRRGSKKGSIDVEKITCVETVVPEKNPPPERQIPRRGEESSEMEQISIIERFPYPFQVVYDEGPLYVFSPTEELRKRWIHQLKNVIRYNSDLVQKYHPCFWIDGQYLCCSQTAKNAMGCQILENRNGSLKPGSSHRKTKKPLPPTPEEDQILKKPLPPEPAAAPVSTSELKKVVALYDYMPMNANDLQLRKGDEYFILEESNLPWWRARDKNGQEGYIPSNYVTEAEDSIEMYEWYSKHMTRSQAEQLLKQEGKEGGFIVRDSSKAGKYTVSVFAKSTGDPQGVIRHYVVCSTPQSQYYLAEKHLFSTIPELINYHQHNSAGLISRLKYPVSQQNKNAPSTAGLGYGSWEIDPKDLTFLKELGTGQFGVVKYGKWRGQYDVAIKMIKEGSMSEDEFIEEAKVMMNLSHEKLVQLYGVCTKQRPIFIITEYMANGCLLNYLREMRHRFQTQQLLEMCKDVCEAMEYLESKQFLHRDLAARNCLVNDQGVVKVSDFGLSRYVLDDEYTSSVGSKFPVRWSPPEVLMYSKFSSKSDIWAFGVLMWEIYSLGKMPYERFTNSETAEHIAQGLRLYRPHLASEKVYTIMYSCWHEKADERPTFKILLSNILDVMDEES

Row | IC50 [1] [nM] | IC50 (read-out: Btk (IC50)) [nM] | IC50 (Btk (IC50)) [nM] | Compound | IC50 [nM]
1 | 100 to 1000 | 100 to 1000 | – | CN(C(=O)N[C@@H]1CCCN(c2cnc(C(N)=O)c(Nc3ccc(F)cc3)n2)C1)c1cc(Cl)cc(C(F)(F)F)c1 [Example 322, (R)-5-(3-(3-(3-chloro-5-(trifluoromethyl)phenyl)-3-methylureido)piperidin-1-yl)-3-(4-fluorophenylamino)pyrazine-2-carboxamide] | –
2 | 100 to 1000 | 100 to 1000 | – | CN(C(=O)N[C@@H]1CCCN(c2cnc(C(N)=O)c(Nc3ccc(C4(C#N)CC4)cc3)n2)C1)c1cc(Cl)cc(C(F)(F)F)c1 [Example 323, (R)-5-(3-(3-(3-chloro-5-(trifluoromethyl)phenyl)-3-methylureido)piperidin-1-yl)-3-(4-(1-cyanocyclopropyl)phenylamino)pyrazine-2-carboxamide] | –
3 | 10 to 100 | 10 to 100 | – | CN(C(=O)N[C@@H]1CCCN(c2cnc(C(N)=O)c(Nc3ccc(C4(C(N)=O)CC4)cc3)n2)C1)c1cc(Cl)cc(C(F)(F)F)c1 [Example 324, (R)-3-(4-(1-carbamoylcyclopropyl)phenylamino)-5-(3-(3-(3-chloro-5-(trifluoromethyl)phenyl)-3-methylureido)piperidin-1-yl)pyrazine-2-carboxamide] | –
4 | < 10 | < 10 | – | NC(=O)c1ncc(N2CCC[C@@H](NC(=O)c3ccc4nccn4c3)C2)nc1Nc1ccc(C2CCOCC2)cc1 [Example 325, (R)—N-(1-(5-carbamoyl-6-(4-(tetrahydro-2H-pyran-4-yl)phenylamino)pyrazin-2-yl)piperidin-3-yl)imidazo[1,2-a]pyridine-6-carboxamide] | –
5 | < 10 | < 10 | – | CN(C)C(=O)N[C@@H]1CCCCN(c2cnc(C(N)=O)c(Nc3ccc(C4CCN(C5CCCC5)CC4)cc3)n2)C1 [Example 327, (R)-3-(4-(1-cyclopentylpiperidin-4-yl)phenylamino)-5-(3-(3,3-dimethylureido)azepan-1-yl)pyrazine-2-carboxamide] | –
6 | < 10 | < 10 | – | NC(=O)c1ncc(N2CCCC[C@@H](NC(=O)C3CC3)C2)nc1Nc1ccc(C2CCN(C3CCCC3)CC2)cc1 [Example 328, (R)-3-(4-(1-cyclopentylpiperidin-4-yl)phenylamino)-5-(3-(cyclopropanecarboxamido)azepan-1-yl)pyrazine-2-carboxamide] | –
7 | < 10 | – | < 10 | CN(C)C(=O)N[C@@H]1CCCN(c2nnc(C(N)=O)c(Nc3ccc(C4CCN(C5CCCC5)CC4)cc3)n2)C1 [Example 329, (R)-5-(4-(1-cyclopentylpiperidin-4-yl)phenylamino)-3-(3-(3,3-dimethylureido)piperidin-1-yl)-1,2,4-triazine-6-carboxamide] | –
8 | < 10 | < 10 | – | CCC(=O)N[C@@H]1CCCN(c2nnc(C(N)=O)c(Nc3ccc(C4CCN(C5CCCC5)CC4)cc3)n2)C1 [Example 330, (R)-5-(4-(1-cyclopentylpiperidin-4-yl)phenylamino)-3-(3-propionamidopiperidin-1-yl)-1,2,4-triazine-6-carboxamide] | –
9 | < 10 | – | – | COc1ccc(C(=O)N[C@@H]2CCCN(c3nnc(C(N)=O)c(Nc4ccc(N5CCN(C6CCCC6)CC5)cc4)n3)C2)cc1 [Example 331, (R)-5-(4-(4-cyclopentylpiperazin-1-yl)phenylamino)-3-(3-(4-methoxybenzamido)piperidin-1-yl)-1,2,4-triazine-6-carboxamide] | –
10 | < 10 | – | – | COc1ccc(C(=O)N[C@@H]2CCCN(c3nnc(C(N)=O)c(Nc4ccc(N5CCC(C(=O)N(C)C)CC5)cc4)n3)C2)cc1 [Example 332, (R)-5-(4-(4-(dimethylcarbamoyl)piperidin-1-yl)phenylamino)-3-(3-(4-methoxybenzamido)piperidin-1-yl)-1,2,4-triazine-6-carboxamide] | –

The next lines start with the molecule.

Row | Compound | IC50 [1] [nM] | IC50 (read-out: Btk (IC50)) [nM] | IC50 (Btk (IC50)) [nM] | IC50 [nM]
11 | NC(=O)c1ncc(N2CCC[C@@H](NC(=O)c3ccc(Cl)cc3)C2)nc1Nc1ccc(C2CCN(C3CC3)CC2)cc1 [Example 311, (R)-5-(3-(4-chlorobenzamido)piperidin-1-yl)-3-(4-(1-cyclopropylpiperidin-4-yl)phenylamino)pyrazine-2-carboxamide] | < 10 | < 10 | – | –
12 | NC(=O)c1ncc(N2CCC[C@@H](NC(=O)c3cccc(Cl)c3)C2)nc1Nc1ccc(C2CCN(C3CC3)CC2)cc1 [Example 312, (R)-5-(3-(3-chlorobenzamido)piperidin-1-yl)-3-(4-(1-cyclopropylpiperidin-4-yl)phenylamino)pyrazine-2-carboxamide] | < 10 | < 10 | – | –
13 | NC(=O)c1ncc(N2CCC[C@@H](NC(=O)c3cncc(Cl)c3)C2)nc1Nc1ccc(C2CCN(C3CC3)CC2)cc1 [Example 313, (R)-5-(3-(5-chloronicotinamido)piperidin-1-yl)-3-(4-(1-cyclopropylpiperidin-4-yl)phenylamino)pyrazine-2-carboxamide] | < 10 | < 10 | – | –
14 | NC(=O)c1ncc(N2CCC[C@@H](NC(=O)c3ccc(Cl)s3)C2)nc1Nc1ccc(C2CCN(C3CC3)CC2)cc1 [Example 314, (R)-5-(3-(5-chlorothiophene-2-carboxamido)piperidin-1-yl)-3-(4-(1-cyclopropylpiperidin-4-yl)phenylamino)pyrazine-2-carboxamide] | 10 to 100 | – | – | –
15 | NC(=O)c1ncc(N2CCC[C@@H](NC(=O)c3cc4ccccc4s3)C2)nc1Nc1ccc(C2CCN(C3CC3)CC2)cc1 [Example 315, (R)-5-(3-(benzo[b]thiophene-2-carboxamido)piperidin-1-yl)-3-(4-(1-cyclopropylpiperidin-4-yl)phenylamino)pyrazine-2-carboxamide] | 10 to 100 | – | – | 10 to 100
16 | NC(=O)c1ncc(N2CCC[C@@H](NC(=O)c3cc4c(s3)CCCC4)C2)nc1Nc1ccc(C2CCN(C3CC3)CC2)cc1 [Example 316, (R)-3-(4-(1-cyclopropylpiperidin-4-yl)phenylamino)-5-(3-(4,5,6,7-tetrahydrobenzo[b]thiophene-2-carboxamido)piperidin-1-yl)pyrazine-2-carboxamide] | < 10 | – | – | –
17 | NC(=O)c1ncc(N2CCC[C@@H](NC(=O)c3ccc4ccccc4c3)C2)nc1Nc1ccc(C2CCN(C3CC3)CC2)cc1 [Example 317, (R)-5-(3-(2-naphthamido)piperidin-1-yl)-3-(4-(1-cyclopropylpiperidin-4-yl)phenylamino)pyrazine-2-carboxamide] | 10 to 100 | – | – | –
18 | NC(=O)c1ncc(N2CCC[C@@H](NC(=O)c3ccc(-c4ccccc4)cc3)C2)nc1Nc1ccc(C2CCN(C3CC3)CC2)cc1 [Example 318, (R)-5-(3-biphenyl-4-ylcarboxamidopiperidin-1-yl)-3-(4-(1-cyclopropylpiperidin-4-yl)phenylamino)pyrazine-2-carboxamide] | 10 to 100 | – | – | –
19 | NC(=O)c1ncc(N2CCC[C@@H](NC(=O)c3ccc(-c4ccccc4)nc3)C2)nc1Nc1ccc(C2CCN(C3CC3)CC2)cc1 [Example 319, (R)-3-(4-(1-cyclopropylpiperidin-4-yl)phenylamino)-5-(3-(6-phenylnicotinamido)piperidin-1-yl)pyrazine-2-carboxamide] | < 10 | – | – | –
20 | NC(=O)c1ncc(N2CCC[C@@H](NC(=O)c3ccc(F)cc3)C2)nc1Nc1ccc(C2CCN(C3CCCC3)CC2)cc1 [Example 320, (R)-3-(4-(1-cyclopentylpiperidin-4-yl)phenylamino)-5-(3-(4-fluorobenzamido)piperidin-1-yl)pyrazine-2-carboxamide] | < 10 | < 10 | – | –
